According to patent publication US8969294B2 (Istituto di Recerche di Biologia Molecolare P. Angeletti …, priority 2008, dated 2015):
Numbered stars: 1 amine (or outer) side, 2 acyl side, 3 side chain; on linkers, the order of the positions; unused ones are H or OH. Square brackets hold non-standard residues; d marks the D form. Side chains are listed from the residue outwards. Ends that are not written are not given here. Peptide text beside a SMILES is read from it. * marks the point of attachment. γGlu = O=C(O)[C@H](CCC(=O)[*:2])N[*:1]; Palmitoyl = CCCCCCCCCCCCCCCC(=O)*; Aib = CC(C)(N)C(=O)O

Legend:
[1] = Circular dichroism, percent helicity
[2] = DIO mice, s.c. daily for seven days (Example 32); type: in vivo
Excerpt: The acylated glucagon analogs were as follows:

GLP-1 receptor = GLP-1 receptor (Homo sapiens, UniProt P43220); assay: Functional assay, cAMP synthesis: luciferase reporter in HEK293 cells co-transfected with GLP-1 receptor
GLP-1 receptor, sequence (P43220 24-463, species assumed): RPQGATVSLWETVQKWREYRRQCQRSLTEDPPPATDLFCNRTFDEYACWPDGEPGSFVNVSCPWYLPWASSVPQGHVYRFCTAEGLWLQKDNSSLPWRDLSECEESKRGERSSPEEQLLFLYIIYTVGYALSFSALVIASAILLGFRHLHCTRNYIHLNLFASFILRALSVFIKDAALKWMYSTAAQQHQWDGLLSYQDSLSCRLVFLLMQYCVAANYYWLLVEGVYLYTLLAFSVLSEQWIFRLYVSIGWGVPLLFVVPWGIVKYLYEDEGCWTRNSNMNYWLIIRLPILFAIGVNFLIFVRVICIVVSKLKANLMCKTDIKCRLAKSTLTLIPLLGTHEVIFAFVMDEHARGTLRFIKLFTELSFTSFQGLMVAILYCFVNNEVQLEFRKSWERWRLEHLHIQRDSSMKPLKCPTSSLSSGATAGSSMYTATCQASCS
Procedure: (§1) Peptide absorbance readings were obtained from UV Absorbance measurements at 280 nm on a Genesys 6 Spectrophotometer (Thermo Electron Corporation). Beer's Law was used to calculate solution concentrations based on the number of tryptophan and tyrosine residues in each analog. At the end of the incubation, 100 μL LucLite luminescence substrate reagent was added to each well, the plate sealed and shaken, and placed into a Wallac Trilux luminescence counter for cAMP detection.
(§2) HEK293 cells were co-transfected with the GcgR or GLP-1R cDNAs and a luciferase reporter gene-linked to a cAMP response element (CRE). […] The plate was incubated for 10 min in the dark and light output was quantified on a MicroBeta1450 liquid scintillation counter (Perkin-Elmer, Wellesley, Mass.).

glucagon receptor = glucagon receptor (Homo sapiens, UniProt P47871); assay: Functional assay, cAMP synthesis: luciferase reporter in HEK293 cells co-transfected with glucagon receptor
glucagon receptor, sequence (P47871 26-477): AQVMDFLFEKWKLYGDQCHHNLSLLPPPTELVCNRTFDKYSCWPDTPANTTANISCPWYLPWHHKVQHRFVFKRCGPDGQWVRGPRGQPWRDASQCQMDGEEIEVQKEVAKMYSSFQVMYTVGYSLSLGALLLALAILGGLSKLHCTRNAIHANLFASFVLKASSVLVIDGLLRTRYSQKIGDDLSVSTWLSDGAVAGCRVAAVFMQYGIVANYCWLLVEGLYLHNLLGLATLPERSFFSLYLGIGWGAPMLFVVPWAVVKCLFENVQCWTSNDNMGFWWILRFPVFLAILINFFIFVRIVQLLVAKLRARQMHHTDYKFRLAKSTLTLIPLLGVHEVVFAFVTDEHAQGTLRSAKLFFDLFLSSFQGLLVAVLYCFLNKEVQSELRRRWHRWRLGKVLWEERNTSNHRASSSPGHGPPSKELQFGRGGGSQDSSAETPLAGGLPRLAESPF
Procedure: as §1, §2

[3] = DIO mice, i.p. once a week for 2 weeks (Example 30); type: in vivo
Procedure: Changes in body weight of and food intake by the mice were measured 0, 1, 3, 5, 7, 8, 10, 12, and 14 days after injection. Blood glucose levels of the mice were monitored throughout the 14 days. Glucose tolerance tests were performed by injecting a 25% glucose in saline solution 1 hour or 24 hours after administration of the acylated or pegylated peptide and measuring blood glucose levels at −60, 0, 15, 30, 60, or 120 min after the glucose injection.

[4] = GLP-1 receptor knock out (GLP-1R−/−) mice on high-fat diet, one month; type: in vivo
[5] = Diet-induced obese rats, once-a-week injection, 3-week treatment; type: in vivo; settings: 70 nmol/kg/week, 3 weeks
Procedure: To determine if the principal phenomenon generalizes across species, both compounds were administered to diet-induced obese rats (mean weight 777.4+/−2.1 g, dose 70 nmol/kg/week, once-a-week injection, 3-week treatment).

[6] = Diet-induced obese C57B6 mice, s.c. Peptide X-PEG / Y-PEG (Examples 45-49); type: in vivo
Procedure: C57BI/6 mice were obtained from Jackson Laboratories and fed a diabetogenic diet from Research Diets, a high sucrose diet with 58% kcal from fat. Mice were single or group-housed on a 12:12-h light-dark cycle at 22° C. with free access to food and water. All studies were approved by and performed according to the guidelines of the Institutional Animal Care and Use Committee of the University of Cincinnati.
Whole body composition (fat and lean mass) was measured using NMR technology (EchoMRI, Houston, Tex.).
Energy intake and expenditure, as well as home-cage activity, were assessed by using a combined indirect calorimetry system (TSE Systems, Bad Homburg, Germany). Oxygen consumption and CO2 production were measured every 45 min for a total of 120 h (including 12 h of adaptation) to determine the respiratory quotient and energy expenditure. Food and water intake and meal patterns were determined continuously for 120 h at the same time as the indirect calorimetry assessments by integration of scales into the sealed cage environment. Meals were defined as food intake events with a minimum duration of 60 s, and a break of 300 s between food intake events. Home-cage locomotor activity was determined using a multidimensional infrared light beam system with beams scanning the bottom and top levels of the cage, and activity being expressed as beam breaks. Stationary motor activity (fidgeting) was defined as consecutive breaks of one single light beam at cage-bottom level, ambulatory movement as breaks of any two different light beams at cage-bottom level, and rearing as simultaneous breaks of light beams on both cage-bottom and the top level.
Blood was collected after a 6-h fast from tail veins using EDTA-coated Microvette tubes (Sarstedt, Nuremberg, Germany) and immediately chilled on ice. After 15 min of centrifugation at 3,000 g and 4° C., plasma was stored at −80° C. Plasma insulin was quantified by a radioimmunoassay from Linco (Sensitive Rat Insulin RIA; Linco Research, St. Charles, Mo.). Plasma TGs and cholesterol levels were measured by enzymatic assay kits (Thermo Electron, Waltham, Mass.). Samples were analyzed individually with the exception that pooled samples (0.25 ml) from 5 animals/group were subjected to fast-performance liquid chromatography (FPLC) gel filtration on two Superose 6 columns connected in series for lipoprotein separation. All assays were performed according to the manufacturer's instructions.
For the determination of glucose tolerance, mice were subjected to 6 h of fasting and injected intraperitoneally (i.p.) with 2 g glucose/kg body wt (50% D-glucose (Sigma) in 0.9% saline) for the glucose tolerance test (GTT). Tail blood glucose levels (mg/dl) were measured by using a hand-held glucometer (TheraSense Freestyle) before (0 min) and at 15, 30, 60, 90, and 120 min after injection.
The 40-kd pegylated peptides Peptides X-PEG and Y-PEG were used as single weekly subcutaneous (s.c) injections in diet-induced obese (D10) C57B6 mice.
Long-term effects of these lower doses on food intake (p=0.95; FIG. 29C) were less impressive than short-term effects with a higher dose (FIG. 27C).

Question: What does the source list for GLP-1?
Answer: Percent Helicity, 0% TFE ([1]; 10 mM phosphate buffer pH 5.9, 0% TFE): 14%; Percent Helicity, 10% TFE ([1]; 10% TFE): 29%; Percent Helicity, 20% TFE ([1]; 20% TFE): 55%

Question: With “γE-γE-C16 Glucagon Amide: C16 Glucagon Amide with C16 attached to Lys10 through gamma-Glu-gamma-Glu dipeptide spacer” as the compound, how does the “fat mass on Day 7” value ([2]; 100 nmol/kg) read?
Answer: lowest fat mass

Question: What about the “ability to cause weight loss” value ([2]; 30 or 100 nmol/kg daily s.c.) of the same compound?
Answer: greatest ability to cause weight loss

Question: And the “decrease of blood glucose levels” value ([2]; higher dose)?
Answer: worked as well as Liraglutide

Question: Which “% Activity of GLP-1” value (GLP-1 receptor) does the source give for `CCCCCCCCCCCCCC(=O)NCCCC[C@H](NC(=O)[C@H](CC(=O)O)NC(=O)[C@H](CO)NC(=O)[C@@H](NC(=O)[C@H](Cc1ccccc1)NC(=O)[C@@H](NC(=O)CNC(=O)[C@H](CCC(N)=O)NC(=O)[C@H](CO)NC(=O)C(C)(C)c1c[nH]cn1)[C@@H](C)O)[C@@H](C)O)C(=O)N[C@@H](CO)C(=O)N[C@@H](CCCCN)C(=O)N[C@@H](Cc1ccc(O)cc1)C(=O)N[C@@H](CC(C)C)C(=O)N[C@@H](CC(=O)O)C(=O)N[C@H]1CCC(=O)NCCCC[C@@H](C(=O)N[C@@H](CC(=O)O)C(=O)N[C@@H](Cc2ccccc2)C(=O)N[C@H](C(=O)N[C@@H](CCC(N)=O)C(=O)N[C@@H](Cc2c[nH]c3ccccc23)C(=O)N[C@@H](CC(C)C)C(=O)N[C@@H](CCSC)C(=O)N[C@@H](CC(N)=O)C(=O)N[C@H](C(N)=O)[C@@H](C)O)C(C)C)NC(=O)[C@H](C)NC(=O)[C@H](CCCNC(=N)N)NC(=O)[C@H](CCCNC(=N)N)NC1=O` [DMIA1, K10(C14), [E16/K20]-Gluc Amide] here?
Answer: 30%

Question: And the “% Activity of Glucagon” value (glucagon receptor; Table 21)?
Answer: 203.7%

Question: Which results are given for “Peptide A K^10—C14: Peptide A of Example 20 with Lys10 acylated with a C14 fatty acid chain (H[Aib]QGTFTSDK(C14 fatty acid)SKYLDEQAAKEFIC(PEG 40 kDa)WLMNT-NH2)”?
Answer: total body weight ([3]; 40 or 80 nmol/kg, 14 days): reduced as compared to mice injected with the vehicle control; blood glucose levels in response to a glucose injection ([3]; glucose 24 hours after peptide): lowered in comparison to vehicle control

Question: Which results are given for `CSCC[C@H](NC(=O)[C@H](CC(C)C)NC(=O)[C@H](Cc1c[nH]c2ccccc12)NC(=O)[C@H](CCC(N)=O)NC(=O)[C@@H](NC(=O)[C@H](Cc1ccccc1)NC(=O)[C@H](CC(=O)O)NC(=O)[C@H](CCCCN)NC(=O)[C@H](C)NC(=O)[C@H](CCCNC(=N)N)NC(=O)[C@H](CCCNC(=N)N)NC(=O)[C@H](CCC(=O)O)NC(=O)[C@H](CC(=O)O)NC(=O)[C@H](CC(C)C)NC(=O)[C@H](Cc1ccc(O)cc1)NC(=O)[C@H](CCCCN)NC(=O)[C@H](CO)NC(=O)[C@H](Cc1ccc(O)cc1)NC(=O)[C@H](CC(=O)O)NC(=O)[C@H](CO)NC(=O)[C@@H](NC(=O)[C@H](Cc1ccccc1)NC(=O)[C@@H](NC(=O)CNC(=O)[C@H](CCC(N)=O)NC(=O)[C@H](CO)NC(=O)[C@@H](N)Cc1c[nH]cn1)[C@@H](C)O)[C@@H](C)O)C(C)C)C(=O)N[C@@H](CC(N)=O)C(=O)N[C@H](C(N)=O)[C@@H](C)O` [E16, K20 Gluc-NH2, HSQGTFTSDYSKYLDERRAKDFVQW LMNTa]?
Answer: Percent Potency Relative to Native Ligand, GLP-1Rec (GLP-1 receptor; Table 5): 41.5%; Percent Potency Relative to Native Ligand, GLP-1Rec (GLP-1 receptor; Table 9): 41.5%; EC50 (glucagon receptor; EC50, Glucagon Receptor, Table 13): 0.18 nM; EC50 (glucagon receptor; EC50 at Glucagon Receptor, Table 17): 0.203 nM; Percent Potency Relative to Native Ligand, GRec (glucagon receptor; Table 5): 130.1%; Percent Potency Relative to Native Ligand, GRec (glucagon receptor; Table 9): 130.1%

Question: For “H(Aib)QGTFTSDYSKYLDEQAAKEFICWLMNT-amide [Peptide Y-PEG]”, which body weight [4] is on record?
Answer: significant decrease in body weight

Question: What about the fat mass [4] of the same compound?
Answer: significant decrease

Question: What about the “change in body weight” value [5] of the same compound?
Answer: −20.58+/−2.26%

Question: What about the “change in fat mass” value [5] of the same compound?
Answer: −33.76+/−4.76%

Question: What about the total cholesterol ([6]; 70 nmol/kg s.c. Days 0 and 7, evaluated Day 9) of the same compound?
Answer: 63.0 mg/dL

Question: What about the “blood glucose profile (AUC), i.p. glucose challenge” value ([6]; Day 3) of the same compound?
Answer: 14183±1072

Question: And the “Blood glucose levels, mean decrease” value ([6]; weekly s.c. 70 nmol/kg, from Day 3)?
Answer: −32%

Question: What about the “decrease in body weight” value ([6]; weekly s.c. 70 nmol/kg, one month) of the same compound?
Answer: 28.1%

Question: Which results are given for `CCCCCCCCCCCCCCCC(=O)NCCCC[C@H](NC(=O)[C@H](CC(=O)O)NC(=O)[C@H](CO)NC(=O)[C@@H](NC(=O)[C@H](Cc1ccccc1)NC(=O)[C@@H](NC(=O)CNC(=O)[C@H](CCC(N)=O)NC(=O)C(C)(C)NC(=O)[C@@H](N)Cc1c[nH]cn1)[C@@H](C)O)[C@@H](C)O)C(=O)N[C@@H](CO)C(=O)N[C@@H](CCCCN)C(=O)N[C@@H](Cc1ccc(O)cc1)C(=O)N[C@@H](CC(C)C)C(=O)N[C@@H](CC(=O)O)C(=O)NC(C)(C)C(=O)N[C@@H](CCCNC(=N)N)C(=O)N[C@@H](CCCNC(=N)N)C(=O)N[C@@H](C)C(=O)N[C@@H](CCC(N)=O)C(=O)N[C@@H](CC(=O)O)C(=O)N[C@@H](Cc1ccccc1)C(=O)N[C@H](C(=O)N[C@@H](CCC(N)=O)C(=O)N[C@@H](Cc1c[nH]c2ccccc12)C(=O)N[C@@H](CC(C)C)C(=O)N[C@@H](CCSC)C(=O)N[C@@H](CC(N)=O)C(=O)N[C@H](C(N)=O)[C@@H](C)O)C(C)C` [AIB2, AIB16, K10(C16) Gluc Amide]?
Answer: EC50 (glucagon receptor; EC50 at Glucagon Receptor (20% human plasma), Table 28, 20% human plasma): 0.023 nM; EC50 (glucagon receptor; EC50 at Glucagon Receptor, Table 28): 0.052 nM; EC50 (glucagon receptor; EC50 at the Glucagon receptor, Table 21): 0.02 nM

Question: For `CCCCCCCCCCCCCCCC(=O)N[C@@H](CCC(=O)N[C@@H](CCC(=O)NCCCC[C@H](NC(=O)[C@H](CC(=O)O)NC(=O)[C@H](CO)NC(=O)[C@@H](NC(=O)[C@H](Cc1ccccc1)NC(=O)[C@@H](NC(=O)CNC(=O)[C@H](CCC(=O)O)NC(=O)C(C)(C)NC(=O)[C@@H](N)Cc1c[nH]cn1)[C@@H](C)O)[C@@H](C)O)C(=O)N[C@@H](CO)C(=O)N[C@@H](CCCCN)C(=O)N[C@@H](Cc1ccc(O)cc1)C(=O)N[C@@H](CC(C)C)C(=O)N[C@@H](CC(=O)O)C(=O)N[C@@H](CCC(=O)O)C(=O)N[C@@H](CCC(N)=O)C(=O)N[C@@H](C)C(=O)N[C@@H](C)C(=O)N[C@@H](CCCCN)C(=O)N[C@@H](CCC(=O)O)C(=O)N[C@@H](Cc1ccccc1)C(=O)N[C@H](C(=O)N[C@@H](C)C(=O)N[C@@H](Cc1c[nH]c2ccccc12)C(=O)N[C@@H](CC(C)C)C(=O)N[C@@H](CCSC)C(=O)N[C@@H](CC(N)=O)C(=O)N[C@H](C(N)=O)[C@@H](C)O)[C@@H](C)CC)C(=O)O)C(=O)O` [compound 648] (H-H[Aib]EGTFTSDK([γGlu-γGlu-Palmitoyl])SKYLDEQAAKEFIAWLMNT-NH2; N-terminus assumed), which EC50 (glucagon receptor; EC50 at Glucagon Receptor, Table 31) is on record?
Answer: 2.92 nM
